Patent US12403139B2, “Methods and compositions for prevention and treatment of cardiac hypertrophy” (University of Hawaii, priority 2010, dated 2025)

Legend:
WT mice exposed to TAC [1] = test: Pressure overload cardiac hypertrophy by transverse aortic constriction (TAC): heart weight and echocardiography; format: in vivo
Experimental: Transverse Aortic Constriction (TAC). Transverse aortic constriction was performed as described by Rockman, producing left ventricular hypertrophy by constriction of the aorta (Rockman et al., 1994; Rockman et al., 1991). The left side of the chest was depilated with Nair and a baseline 2-D echocardiogram was obtained. Mice were then deeply anesthetized with a mixture of ketamine and xylazine. The transverse aorta between the brachiocephalic and left carotid artery was banded using 6-0 silk ligature around the vessel and a 26 G blunt needle, after which the needle was withdrawn. Sham surgeries were identical apart from the constriction of the aorta.
Transthoracic echocardiography. Baseline and post TAC transthoracic echocardiography were used to assess changes in mouse heart dimensions and function. Briefly, after two days of acclimatization and depilation, unanesthetized transthoracic echocardiography was performed using a 30-Mhz transducer (Vevo 770, VisualSonics). High quality two-dimensional images and M-mode images of the left ventricle were recorded. Measurements of left ventricular end-diastolic (LVIDd) and end-systolic (LVIDs) internal dimensions were performed by the leading edge to leading edge convention adopted by the American Society of Echocardiography. The left ventricular ejection fraction (% EF) was calculated as (LV Vol; d-LV Vol; s/LV Vol; d×100) (Visualsonics Inc.).
Osmotic pump installation. Long term (up to 42 day) infusion of drugs can be accomplished by insertion of osmotic pumps without the need for repeated injection. Mice are placed under a low plane of anesthesia with an injection of Ketamine/Xylazine anesthetic (50 mg/10 mg·Kg) intraperitoneally (IP) 10 minutes prior to surgery. A small area between shoulder blades is shaved and sterilized with Povidine swab. A small incision is made in this area and blunt dissected below skin to allow placement of an Alzet osmotic pump (model 2006), previously loaded with the drug of choice under the skin between the shoulder blades where it is inaccessible to the mouse. Several stitches are applied to close the incision. The mouse is placed in regular housing on a warming mat until completely conscious, after which mice are then returned to regular housing room.
The mice were subjected to pressure overload induced cardiac hypertrophy by TAC while administered 4 mg/kg of BCTC (in 20% wt/vol 2-Hydroxypropyl)-β-cyclodextrin/PBS) throughout the entire experiment using osmotic pumps (Alzet, Model 2006) pumping continuously at a rate of 0.15 ul/hr. The test was limited to ˜42 days (max) by the function of the pumps, as such the experiment was halted at 36 days post TAC, as pumps are installed previous to the TAC to allow recovery before the TAC surgery. […] This protection from dilation of the left ventricle translates to a protection in the function of the heart as measured by ejection fraction (% EF, p<0.05) and fractional shortening (% FS).

WT mice exposed to TAC [2] = test: Histological analysis of the heart 36 days post TAC (WGA-Alexa488 and picrosirius red staining); format: in vivo; conditions: BCTC treated TAC mice vs vehicle treated TAC mice
Experimental: Tissue preparation for histology. […] For histology, hearts were perfused with phosphate-buffered saline and 10% formalin in situ, collected immediately, and fixed overnight in 10% formalin at 4° C. Tissues were then cut in a sagittal orientation, embedded in paraffin, mounted on glass slides, and stored until use. Paraffin-embedded sections were stained for the following:
Collagen: Collagen volume fraction was determined by analysis of picrosirius stained sections. Sections cut to 5 μm thickness were deparaffinized, stained with Weigert's hematoxylin, then stained with picrosirius red (0.1% Sirius Red in picric acid). Sections were subsequently washed and dehydrated before image analysis.
Cardiomyocyte cross sectional area: Heart sections were deparaffinized and permeabilized, then stained with wheat germ-agglutinin conjugated to Alexa488 (WGA-Alexa488, Invitrogen, W11261) at a concentration of 50 μg/mL to identify sarcolemmal membranes and measure cardiomyocyte cross sectional area (described below).
Image collection and analysis. […] Fibrosis and cross-sectional cardiomyocyte area were quantified using ImageJ software (NIH). To quantify fibrosis, collagen fibers were highlighted, and the red-stained pixels were counted to determine the percentage of pixels in each field that represented collagen fibers. […]

CC(C)(C)c1ccc(NC(=O)N2CCN(c3ncccc3Cl)CC2)cc1 [BCTC, N-(4-tertiarybutylphenyl)-4-(3-chloropyridin-2-yl)tetrahydropyrazine-1(2H)-carboxamide] was tested, and the “fractional shortening (% FS)” value (WT mice exposed to TAC [1]; TAC mice, 4 mg/kg BCTC by osmotic pump, 36 days post TAC, vs vehicle, p<0.01 (FIG. 8E)) was “significantly diminished at 36 days post TAC compared to drug-treated mice”, the “ejection fraction (% EF)” value (WT mice exposed to TAC [1]; TAC mice, 4 mg/kg BCTC by osmotic pump, 36 days post TAC, vs vehicle, p<0.05 (FIG. 8D)) was “significantly diminished at 36 days post TAC compared to drug-treated mice” and the “heart weight/body weight ratio” value (WT mice exposed to TAC [1]; TAC mice, 4 mg/kg BCTC by osmotic pump, 36 days post TAC, vs vehicle, p=0.035 (FIG. 8A)) was “significantly greater in vehicle treated WT mice than drug treated mice”. For the same molecule, the “left ventricular internal diameter end-diastolic (LVIDd), TAC mice” value (WT mice exposed to TAC [1]; TAC mice, 4 mg/kg BCTC by osmotic pump, zero to 36 days, vs vehicle, significantly different after 18 days, p<0.001 (FIG. 8C)) was “significantly smaller LVIDd than the vehicle treated TAC mice”, the “LVIDd over time in TAC mice” value (WT mice exposed to TAC [1]; TAC mice, 4 mg/kg BCTC by osmotic pump, vehicle mice start increasing diameter at 9 days) was “the diameter is maintained for the duration of the test” and the “left ventricular internal diameter (LVID,d), sham mice” value (WT mice exposed to TAC [1]; sham mice, BCTC vs vehicle, echocardiography every 9 days (FIG. 8B)) was “no difference”. The “cardiomyocyte cross sectional area” value (WT mice exposed to TAC [2]; p=<0.01, n=100 (FIG. 9A)) was “significantly smaller myocytes in BCTC treated TAC mice than vehicle treated TAC control mice” and the “interstitial collagen (area of collagen staining as a percentage of tissue area)” value (WT mice exposed to TAC [2]; picrosirius red, p=0.05 (FIG. 9B)) was “significantly less interstitial collagen in BCTC treated TAC mice than vehicle treated TAC control mice”.
